In publication PMC6010121, “Structural re-positioning, in silico molecular modelling, oxidative degradation, and biological screening of linagliptin as adenosine 3 receptor (ADORA3) modulators targeting hepatocellular carcinoma” (Journal of Enzyme Inhibition and Medicinal Chemistry, 2018):

Target: T1, adenosine 3 receptor (ADORA3) (Homo sapiens, UniProt P0DMS8)
T1 construct: recombinant human ADORA3 (Abcam)
T1 sequence (P0DMS8 1-318): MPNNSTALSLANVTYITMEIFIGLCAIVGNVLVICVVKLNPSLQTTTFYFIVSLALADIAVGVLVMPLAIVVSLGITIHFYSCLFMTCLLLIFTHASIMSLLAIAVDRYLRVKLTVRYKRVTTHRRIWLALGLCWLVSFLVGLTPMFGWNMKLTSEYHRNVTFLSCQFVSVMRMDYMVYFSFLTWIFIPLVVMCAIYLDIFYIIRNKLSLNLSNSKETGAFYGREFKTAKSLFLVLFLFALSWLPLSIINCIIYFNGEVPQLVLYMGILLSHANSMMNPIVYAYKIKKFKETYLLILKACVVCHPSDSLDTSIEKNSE
Assay: ELISA-based binding inhibition with recombinant human ADORA3 on anti-ADORA3 antibody-coated wells; Ki calculated from IC50 ([…])

Question: How did the Ki turn out when `CC#CCn1c(N2CCC[C@@H](N)C2)nc2c1c(=O)n(Cc1nc(C)c3ccccc3n1)c(=O)n2C` [LIN, linagliptin] was run?
Answer: 37.7 nM
